Data as given in patent US8815923B2, “Therapeutic compounds” (Allergan, Inc., priority 2007, dated 2014).

Columns and labels:
Format in all cases: cell-based
alpha2A receptor = biological target: T1, alpha2A receptor (Homo sapiens, UniProt P08913); assay: RSAT assay, Alpha 2A; settings: for Emax: read-out: Alpha 2A IA (intrinsic activity), in parentheses
T1 construct: expressed in transfected cells; host or cells: NIH-3T3
T1 sequence (P08913 1-465): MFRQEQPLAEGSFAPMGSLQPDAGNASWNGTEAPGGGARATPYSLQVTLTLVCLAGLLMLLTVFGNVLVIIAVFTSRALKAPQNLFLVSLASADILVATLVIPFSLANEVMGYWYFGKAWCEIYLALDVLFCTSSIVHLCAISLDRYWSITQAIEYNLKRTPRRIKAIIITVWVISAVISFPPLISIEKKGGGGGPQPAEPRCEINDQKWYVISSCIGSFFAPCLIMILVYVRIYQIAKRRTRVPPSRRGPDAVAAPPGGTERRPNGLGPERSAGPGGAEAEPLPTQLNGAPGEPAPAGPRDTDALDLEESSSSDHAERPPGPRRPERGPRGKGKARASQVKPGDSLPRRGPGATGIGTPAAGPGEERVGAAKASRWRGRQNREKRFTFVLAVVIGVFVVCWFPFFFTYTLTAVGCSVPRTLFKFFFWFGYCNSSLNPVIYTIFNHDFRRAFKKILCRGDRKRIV
Procedure: (§1) Receptor Selection and Amplification Technology (RSAT) Assay
(§2) The RSAT assay measures a receptor-mediated loss of contact inhibition that results in selective proliferation of receptor-containing cells in a mixed population of confluent cells. The increase in cell number is assessed with an appropriate transfected marker gene such as β-galactosidase, the activity of which can be easily measured in a 96-well format. Receptors that activate the G protein, Gq, elicit this response. Alpha2 receptors, which normally couple to Gi, activate the RSAT response when coexpressed with a hybrid Gq protein that has a Gi receptor recognition domain, called Gq/i5.
(§3) NIH-3T3 cells are plated at a density of 2×10^6 cells in 15 cm dishes and maintained in Dulbecco's modified Eagle's medium supplemented with 10% calf serum. One day later, cells are cotransfected by calcium phosphate precipitation with mammalian expression plasmids encoding p-SV-β-galactosidase (5-10 μg), receptor (1-2 μg) and G protein (1-2 μg). 40 μg salmon sperm DNA may also be included in the transfection mixture. Fresh media is added on the following day and 1-2 days later, cells are harvested and frozen in 50 assay aliquots. Cells are thawed and 100 μl added to 100 μl aliquots of various concentrations of drugs in triplicate in 96-well dishes. Incubations continue 72-96 hr at 37° C. After washing with phosphate-buffered saline, β-galactosidase enzyme activity is determined by adding 200 μl of the chromogenic substrate (consisting of 3.5 mM o-nitrophenyl-β-D-galactopyranoside and 0.5% nonidet P-40 in phosphate buffered saline), incubating overnight at 30° C. and measuring optical density at 420 nm. The absorbance is a measure of enzyme activity, which depends on cell number and reflects a receptor-mediated cell proliferation. The efficacy or intrinsic activity is calculated as a ratio of the maximal effect of the drug to the maximal effect of a standard full agonist for each receptor subtype. Brimonidine, also called UK14304, the chemical structure of which is shown below, is used as the standard agonist for the alpha2A, alpha2B and alpha2C receptors. The EC50 is the concentration at which the drug effect is half of its maximal effect.
(§4) EC50 values are nanomolar. ND stands for “not determinable” at concentrations less than 10 micromolar. IA stands for “intrinsic activity.”

alpha2C receptor = biological target: T2, alpha2C receptor (Homo sapiens, UniProt P18825); assay: RSAT assay, Alpha 2C; settings: for EC50: RSAT, transfected NIH-3T3 cells with Gq/i5, nd = not determinable at concentrations less than 10 micromolar; for Emax: read-out: Alpha 2C IA (intrinsic activity), in parentheses
T2 construct: expressed in transfected cells; host or cells: NIH-3T3
T2 sequence (P18825 1-462): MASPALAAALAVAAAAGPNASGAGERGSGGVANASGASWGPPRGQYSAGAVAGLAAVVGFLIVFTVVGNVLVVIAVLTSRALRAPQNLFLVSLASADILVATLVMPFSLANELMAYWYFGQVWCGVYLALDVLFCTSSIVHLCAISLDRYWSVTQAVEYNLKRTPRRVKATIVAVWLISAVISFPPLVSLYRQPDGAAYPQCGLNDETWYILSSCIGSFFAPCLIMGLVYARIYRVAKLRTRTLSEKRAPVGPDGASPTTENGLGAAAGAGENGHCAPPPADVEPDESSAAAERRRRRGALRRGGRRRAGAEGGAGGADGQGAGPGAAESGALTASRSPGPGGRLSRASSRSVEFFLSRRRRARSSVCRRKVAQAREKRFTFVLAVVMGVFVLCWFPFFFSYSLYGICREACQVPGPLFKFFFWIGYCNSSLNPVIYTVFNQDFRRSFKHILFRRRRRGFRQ
Procedure: as §1, §2, §3, §4

alpha2B receptor = biological target: T3, alpha2B receptor (Homo sapiens, UniProt P18089); assay: RSAT assay, Alpha 2B; settings: for EC50: RSAT, transfected NIH-3T3 cells with Gq/i5, nd = not determinable at concentrations less than 10 micromolar; for Emax: read-out: Alpha 2B IA (intrinsic activity), in parentheses
T3 construct: expressed in transfected cells; host or cells: NIH-3T3
T3 sequence (P18089 1-450): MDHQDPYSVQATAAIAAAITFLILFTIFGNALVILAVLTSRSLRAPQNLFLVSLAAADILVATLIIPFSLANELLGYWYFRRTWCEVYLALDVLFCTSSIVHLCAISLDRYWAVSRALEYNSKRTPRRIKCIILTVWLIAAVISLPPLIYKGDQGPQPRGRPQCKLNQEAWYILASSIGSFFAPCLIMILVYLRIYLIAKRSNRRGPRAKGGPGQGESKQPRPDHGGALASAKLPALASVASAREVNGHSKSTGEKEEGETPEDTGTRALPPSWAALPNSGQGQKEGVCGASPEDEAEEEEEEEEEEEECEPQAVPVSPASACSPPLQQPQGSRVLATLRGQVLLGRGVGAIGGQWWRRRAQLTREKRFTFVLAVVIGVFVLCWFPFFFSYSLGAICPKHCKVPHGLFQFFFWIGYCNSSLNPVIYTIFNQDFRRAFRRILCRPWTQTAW
Procedure: as §1, §2, §3, §4

Compound | Emax (alpha2A receptor) | EC50 (alpha2C receptor) | Emax (alpha2C receptor) | EC50 (alpha2B receptor) | Emax (alpha2B receptor) | EC50 (alpha2A receptor; RSAT, transfected NIH-3T3 cells with Gq/i5, nd = not determinable at concentrations less than 10 micromolar)
c1ccc2c(c1)CCC[C@@H]2NC1=NCCN1 [compound 323] | 12% | 308 nM | 42% | 49 nM | 102% | 
c1ccc2c(c1)CCCC2NC1=NCCN1 (stereo not drawn) [compound 639, (4,5-Dihydro-1H-imidazol-2-yl)-(1,2,3,4-tetrahydro-naphthalen-1-yl)amine] | 25% | 179 nM | 50% | 37 nM | 84% | 
Cc1cc(C)c2c(c1)C(NC1=NCCN1)CCC2 (stereo not drawn) [compound 904, (4,5-Dihydro-1H-imidazol-2-yl)-(5,7-dimethyl-1,2,3,4-tetrahydro-naphthalen-1-yl)-amine] | 35% |  | 4% | 68 nM | 80% | 1620 nM
